According to US10172868B2, “Substituted quinazolines for inhibiting kinase activity” (NeuPharma, Inc., priority 2013, dated 2019):

Experiments:
EGFR (ErbB1) T790M L858R = EGFR (ErbB1) T790M L858R (Homo sapiens (Human), UniProt P00533, L858R/T790M); test: Z'-LYTE kinase inhibition assay, EGFR L858R/T790M; type: biochemical; conditions: for inhibition at 1 µM: read-out: % inhibition against EGFR L858R/T790M (Compound at 1 μM); for IC50: read-out: IC50 against EGFR L858R/T790M; for inhibition at 0.0137 µM: read-out: % inhibition against EGFR L858R/T790M (Compound at 0.0137 μM)
Chain of EGFR (ErbB1) T790M L858R (P00533 25-1210 T790M/L858R): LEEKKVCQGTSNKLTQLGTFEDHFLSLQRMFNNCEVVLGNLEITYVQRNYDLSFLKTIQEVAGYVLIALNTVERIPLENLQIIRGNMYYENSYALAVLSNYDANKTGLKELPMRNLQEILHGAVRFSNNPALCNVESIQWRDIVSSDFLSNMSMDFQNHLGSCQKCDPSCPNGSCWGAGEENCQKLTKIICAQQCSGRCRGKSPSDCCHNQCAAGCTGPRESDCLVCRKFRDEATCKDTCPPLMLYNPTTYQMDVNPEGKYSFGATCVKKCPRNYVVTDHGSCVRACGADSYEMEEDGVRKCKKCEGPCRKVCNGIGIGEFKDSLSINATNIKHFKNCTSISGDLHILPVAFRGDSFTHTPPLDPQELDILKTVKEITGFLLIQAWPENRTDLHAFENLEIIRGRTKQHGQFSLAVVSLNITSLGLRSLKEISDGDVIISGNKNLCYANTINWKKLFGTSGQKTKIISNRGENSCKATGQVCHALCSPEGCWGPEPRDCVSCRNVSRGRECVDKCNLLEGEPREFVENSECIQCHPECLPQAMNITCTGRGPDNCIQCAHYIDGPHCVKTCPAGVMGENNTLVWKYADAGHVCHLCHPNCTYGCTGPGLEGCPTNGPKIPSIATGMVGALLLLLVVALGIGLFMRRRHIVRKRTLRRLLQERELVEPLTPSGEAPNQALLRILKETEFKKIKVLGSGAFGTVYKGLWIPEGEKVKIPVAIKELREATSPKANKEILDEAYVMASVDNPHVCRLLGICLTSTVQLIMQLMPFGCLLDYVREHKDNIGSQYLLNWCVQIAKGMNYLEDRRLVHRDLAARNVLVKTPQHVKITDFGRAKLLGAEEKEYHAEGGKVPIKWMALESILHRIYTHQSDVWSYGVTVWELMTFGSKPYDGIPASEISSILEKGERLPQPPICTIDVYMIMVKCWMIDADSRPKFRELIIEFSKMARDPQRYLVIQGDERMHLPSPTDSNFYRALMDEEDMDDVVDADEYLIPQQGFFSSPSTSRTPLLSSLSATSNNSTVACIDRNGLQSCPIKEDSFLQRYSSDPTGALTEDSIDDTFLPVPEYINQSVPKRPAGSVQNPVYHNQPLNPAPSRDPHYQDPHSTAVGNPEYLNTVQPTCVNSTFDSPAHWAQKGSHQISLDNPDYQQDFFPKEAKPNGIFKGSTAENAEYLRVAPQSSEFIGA
Procedure, shortened: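 IC50 taken from 10-point, 3-fold serial dilutions tested in 1% DMSO. The mutant kinase and peptide were prepared in HEPES pH 6.5 buffer with BRIJ-35, MgCl2, EGTA and NaN3, then reacted with ATP for 1 h at room temperature. Development reagent was added for a further hour before the fluorescence readout.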

FGFR1 = FGFR1 (Homo sapiens (Human), UniProt P11362); test: Z'-LYTE kinase inhibition assay, FGFR1; type: biochemical; conditions: compound at 0.041 μM; read-out: % inhibition against FGFR1
Chain of FGFR1 (P11362 22-822): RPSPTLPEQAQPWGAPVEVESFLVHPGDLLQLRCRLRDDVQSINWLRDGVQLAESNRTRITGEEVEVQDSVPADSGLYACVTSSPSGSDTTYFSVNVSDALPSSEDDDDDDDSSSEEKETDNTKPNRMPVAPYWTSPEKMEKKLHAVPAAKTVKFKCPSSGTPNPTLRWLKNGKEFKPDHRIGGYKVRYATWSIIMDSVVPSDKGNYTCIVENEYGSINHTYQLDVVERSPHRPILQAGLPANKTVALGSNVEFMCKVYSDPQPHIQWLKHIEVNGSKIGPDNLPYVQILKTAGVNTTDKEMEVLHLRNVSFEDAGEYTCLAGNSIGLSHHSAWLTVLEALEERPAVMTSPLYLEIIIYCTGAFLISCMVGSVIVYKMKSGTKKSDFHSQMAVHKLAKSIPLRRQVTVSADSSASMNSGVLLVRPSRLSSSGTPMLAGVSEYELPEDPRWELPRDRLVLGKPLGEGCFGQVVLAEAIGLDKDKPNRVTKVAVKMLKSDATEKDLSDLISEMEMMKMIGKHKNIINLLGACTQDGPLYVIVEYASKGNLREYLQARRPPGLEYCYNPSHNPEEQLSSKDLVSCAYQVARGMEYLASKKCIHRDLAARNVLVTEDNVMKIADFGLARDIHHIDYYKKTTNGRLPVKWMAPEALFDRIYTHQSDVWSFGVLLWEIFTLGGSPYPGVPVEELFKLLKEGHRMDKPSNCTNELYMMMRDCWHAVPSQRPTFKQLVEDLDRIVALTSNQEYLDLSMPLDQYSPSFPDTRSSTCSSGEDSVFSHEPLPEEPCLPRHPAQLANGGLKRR
Description: (§1) Inhibitory activities of compounds against BTK, EGFR and EGFR mutants (EGFR L858R, EGFR T790M, EGFR L858R/T790M), FGFR1, FGFR2, JAK2, JAK3 and KDR were measured by Invitrogen using Z'-LYTE® Method as briefly described in the following.
(§2) Test Compounds are screened in 1% DMSO (final) in the well. For 10 point titrations, 3-fold serial dilutions are conducted from the starting concentration. All ATP Solutions are diluted to a 4× working concentration in Kinase Buffer (50 mM HEPES pH 7.5, 0.01% BRIJ-35, 10 mM MgCl2, 1 mM EGTA). Peptide/Kinase Mixtures are diluted to a 2× working concentration in the appropriate Kinase Buffers as described below.
(v) Peptide/Kinase Mixtures for Measurement of FGFR1:
The 2×FGFR1/Tyr 04 mixture is prepared in 50 mM HEPES pH 7.5, 0.01% BRIJ-35, 10 mM MgCl2, 4 mM MnCl2, 1 mM EGTA, 2 mM DTT. The final 10 μL Kinase Reaction consists of 0.41-3.5 ng FGFR1 and 2 μM Tyr 04 in 50 mM HEPES pH 7.5, 0.01% BRIJ-35, 10 mM MgCl2, 2 mM MnCl2, 1 mM EGTA, 1 mM DTT. After the 1 hour Kinase Reaction incubation, 5 μL of a 1:64 dilution of Development Reagent B is added.
Reaction starts by 30-second shaking of mixture consisting of 2.5 μL 4× test compound, […] 2× kinase reaction mixture and 2.5 μL 4×ATP Solution on Bar-coded Corning, low volume NBS, black 384-well plate (Corning Cat. #3676). Then the mixture is incubated for 60-minute at room temperature for the kinase reaction, followed by addition of 5 μL of a 1:1024 dilution of development reagent A and 30-second plate shake. The mixture is then incubated for another 60-minute at room temperature for development reaction. Finally fluorescence is read by plate reader.
(§3) To determine IC50 of a compound against EGFR, EGFR mutant and other kinases, a series of concentrations of the compound were tested for the inhibition. […] The scale utilized in Table 4 is as follows: +++ less than 100 nM, ++ 100-500 nM and + greater than 500 nM.

HCC827 cells = test: cells; conditions: Homo sapiens, HCC827, 72 h, read-out: IC50 in HCC827 cells
H1975 cells = test: Inhibition of cancer cell growth, MTT assay, H1975; conditions: Homo sapiens, NCI-H1975, 72 h, read-out: IC50 in H1975 cells
Description: (§4) Inhibition of cell growth by compounds was measured using MTT assay (Mosmann, T., Journal of Immunological Methods, 1983, 65, 55-63). Tumor cell lines were purchased from ATCC (American Type Culture Collection, Manassas, Va.). All cell lines were maintained in RPMI 1640 (Hyclone) supplemented with 10% fetal bovine serum (FBS, Hyclone), glutamine (2 mM, Hyclone), and antibiotics (penicillin 100 U/mL and streptomycin 50 μg/mL) at 37° C. in a humidified atmosphere of 5% CO2 in air. Taxol (as a positive control. Sigma) and compounds were dissolved in DMSO (Sigma), and the final concentration of DMSO in the medium was 1%. Tumor cells were plated in 96-well plates at densities of about 4000 cells/well of a 96-well plate and allowed to adhere/grow for 24 h. They were then treated with various concentrations of drug for 72 h, 3-(4,5-Dimethylthiazol-2-yl)-2,5-diphenyltetrazolium bromide (MTT, Sigma) was used to determine the number of viable cells at the time of compound addition and the number of cells remaining after 72 h compound exposure. The number of cells remaining after 72 h was compared to the number of viable cells at the time of compound addition by measuring the absorbance at 570 nm, allowing for the calculation of growth inhibition.
(§5) All concentrations of compounds were tested in triplicate and controls were averaged over 4 wells. IC50 was calculated by plotting the concentration of compound vs the percentage of inhibition in treated wells using GraphPad Prism 5.

EGFR (ErbB1) = EGFR (ErbB1) (Homo sapiens (Human), UniProt P00533); test: Z'-LYTE kinase inhibition assay, EGFR; type: biochemical; conditions: for inhibition at 0.041 µM: read-out: % inhibition against EGFR (Compound at 0.041 μM); for IC50: read-out: IC50 against EGFR
Chain of EGFR (ErbB1) (P00533 25-1210): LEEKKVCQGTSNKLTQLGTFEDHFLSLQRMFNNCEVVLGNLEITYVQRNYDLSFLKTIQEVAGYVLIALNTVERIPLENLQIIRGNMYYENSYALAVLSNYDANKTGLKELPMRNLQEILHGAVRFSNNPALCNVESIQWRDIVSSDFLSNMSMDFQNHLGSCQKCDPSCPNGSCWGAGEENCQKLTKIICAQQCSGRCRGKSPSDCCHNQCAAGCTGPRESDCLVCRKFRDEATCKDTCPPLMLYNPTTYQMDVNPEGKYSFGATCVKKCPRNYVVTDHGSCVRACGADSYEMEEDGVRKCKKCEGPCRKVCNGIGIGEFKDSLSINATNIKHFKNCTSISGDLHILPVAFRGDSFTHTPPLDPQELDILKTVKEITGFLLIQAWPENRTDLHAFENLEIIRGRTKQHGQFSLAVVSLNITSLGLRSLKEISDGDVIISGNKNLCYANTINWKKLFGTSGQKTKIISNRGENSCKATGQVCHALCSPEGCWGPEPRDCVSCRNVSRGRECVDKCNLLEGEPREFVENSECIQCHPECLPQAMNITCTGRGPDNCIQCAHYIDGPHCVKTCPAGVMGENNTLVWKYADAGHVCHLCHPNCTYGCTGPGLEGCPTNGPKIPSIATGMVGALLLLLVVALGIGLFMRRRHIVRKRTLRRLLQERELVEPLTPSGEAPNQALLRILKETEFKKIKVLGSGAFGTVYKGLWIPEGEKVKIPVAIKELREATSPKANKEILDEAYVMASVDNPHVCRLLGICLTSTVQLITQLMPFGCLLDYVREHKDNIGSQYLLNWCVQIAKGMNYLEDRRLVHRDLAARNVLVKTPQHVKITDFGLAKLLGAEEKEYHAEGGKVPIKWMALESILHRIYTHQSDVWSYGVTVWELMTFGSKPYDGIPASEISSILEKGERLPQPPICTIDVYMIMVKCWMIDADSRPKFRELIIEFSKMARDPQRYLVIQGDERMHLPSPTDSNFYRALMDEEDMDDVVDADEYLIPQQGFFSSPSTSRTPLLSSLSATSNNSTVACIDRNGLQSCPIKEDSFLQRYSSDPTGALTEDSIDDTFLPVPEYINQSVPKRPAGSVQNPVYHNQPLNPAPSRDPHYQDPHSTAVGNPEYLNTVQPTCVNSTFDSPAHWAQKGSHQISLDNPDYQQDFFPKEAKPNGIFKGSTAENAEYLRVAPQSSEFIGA
Procedure, shortened: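 IC50 values derived from 10-point, 3-fold compound dilution series (1% DMSO final) using Z'-LYTE fluorescence readout after 60-min development. Reaction: EGFR (1.1-5.25 ng) with 2 μM peptide, 60 min at room temperature in HEPES pH 7.5 buffer containing MgCl2, MnCl2, EGTA, DTT and BRIJ-35.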

BTK = BTK (Homo sapiens (Human), UniProt Q06187); test: Z'-LYTE kinase inhibition assay, BTK; type: biochemical; conditions: read-out: IC50 against BTK
Chain of BTK (Q06187 whole entry): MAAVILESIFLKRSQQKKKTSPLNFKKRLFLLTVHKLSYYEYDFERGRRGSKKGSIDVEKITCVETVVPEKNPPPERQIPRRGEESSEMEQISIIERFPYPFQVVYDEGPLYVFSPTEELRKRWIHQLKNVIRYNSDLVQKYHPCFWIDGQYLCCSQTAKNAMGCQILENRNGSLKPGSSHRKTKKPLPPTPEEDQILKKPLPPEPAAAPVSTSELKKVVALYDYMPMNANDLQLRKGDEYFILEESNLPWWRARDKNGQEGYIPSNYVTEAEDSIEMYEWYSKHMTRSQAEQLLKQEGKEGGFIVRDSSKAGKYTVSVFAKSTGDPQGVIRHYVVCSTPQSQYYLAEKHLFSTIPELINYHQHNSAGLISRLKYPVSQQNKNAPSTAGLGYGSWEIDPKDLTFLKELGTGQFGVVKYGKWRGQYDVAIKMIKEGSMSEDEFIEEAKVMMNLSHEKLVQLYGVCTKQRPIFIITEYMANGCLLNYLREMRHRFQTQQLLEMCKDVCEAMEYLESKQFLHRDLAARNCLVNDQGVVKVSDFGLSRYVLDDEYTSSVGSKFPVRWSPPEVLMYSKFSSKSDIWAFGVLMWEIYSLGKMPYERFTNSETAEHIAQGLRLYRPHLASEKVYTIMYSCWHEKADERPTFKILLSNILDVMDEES
Description: as §1, §2
(v) Peptide/Kinase Mixtures for Measurement of BTK:
The 2×BTK/Tyr 01 mixture is prepared in 50 mM HEPES pH 7.5. 0.01% BRIJ-35, 10 mM MgCl2, 1 mM EGTA.
The mixture is then incubated for another 60-minute at room temperature for development reaction. Finally fluorescence is read by plate reader.
as §3

H1975 tumor xenografts = test: Inhibition of tumor growth in H1975 xenograft model; type: in vivo, BALB/c female nude mice; conditions: QD x 14; for Tumor Volume Pre-treatment: baseline before treatment
Description: H1975 cells were implanted in BALB/c female nude mice and grown as tumor xenografts. When tumors achieved 120-200 mm^3, mice were assigned into treatment and control groups using randomized block design based upon their tumor volumes. Each group contained 6 tumor-bearing mice. Tumors were measured twice weekly in two dimensions using a caliper, and the tumor volume was calculated from two-dimensional measurements using the equation V=0.5×a×b^2 where a and b are the long and short diameters of the tumor, respectively. Relative tumor volume (RTV) was defined as TVt/TVi, the ratio of the volume on a given day (TVt) and the volume at the start of treatment (TVi). Relative tumor growth rate (T/C) was defined as RTVT/RTVC, the ratio of relative tumor volume of treatment group (RTVT) and relative tumor volume of control group (RTVC) on a given day.

A431 cells = test: cells; conditions: Homo sapiens, A-431, 72 h, read-out: IC50 in A431 cells
Description: Taxol (as a positive control. Sigma) and compounds were dissolved in DMSO (Sigma), and the final concentration of DMSO in the medium was 1%. Tumor cells were plated in 96-well plates at densities of about 4000 cells/well of a 96-well plate and allowed to adhere/grow for 24 h. They were then treated with various concentrations of drug for 72 h, 3-(4,5-Dimethylthiazol-2-yl)-2,5-diphenyltetrazolium bromide (MTT, Sigma) was used to determine the number of viable cells at the time of compound addition and the number of cells remaining after 72 h compound exposure. The number of cells remaining after 72 h was compared to the number of viable cells at the time of compound addition by measuring the absorbance at 570 nm, allowing for the calculation of growth inhibition.
as §5
The scale utilized in Tables 5 is as follows: +++ less than 100 nM; ++ between 100 nM and 500 nM; and + greater than 500 nM.

H3255 cells = test: Inhibition of cancer cell growth, MTT assay, H3255; conditions: Homo sapiens, NCI-H3255, 72 h, read-out: IC50 in H3255 cells
Description: as §4, §5

H1299 cells = test: Inhibition of cancer cell growth, MTT assay, H1299; conditions: Homo sapiens, NCI-H1299, 72 h, read-out: IC50 in H1299 cells
Description: as §4, §5

[1] = 30 mg/kg, Intraperitoneal injection

Structure (SMILES)	inhibition at 1 µM (EGFR (ErbB1) T790M L858R) [%]	inhibition at 0.041 µM (FGFR1) [%]	IC50 (HCC827 cells) [nM]	IC50 (H1975 cells) [nM]	inhibition at 0.041 µM (EGFR (ErbB1)) [%]	IC50 (A431 cells) [nM]	inhibition at 0.0137 µM (EGFR (ErbB1) T790M L858R) [%]	IC50 (EGFR (ErbB1)) [nM]	IC50 (EGFR (ErbB1) T790M L858R) [nM]	IC50 (H3255 cells) [nM]	other results
Fc1cccc(-c2cccc3cnc(Nc4ccc(N5CCNCC5)cc4)nc23)c1 [Example C027, 8-(3-fluorophenyl)-N-(4-(piperazin-1-yl)phenyl)quinazolin-2-amine]	> 50	> 50	100 to 500	> 500							
C=CC(=O)Nc1cccc(-c2cccc3cnc(Nc4ccc(N5CCN(CCO)CC5)c(F)c4F)nc23)c1 [Example C151, N-(3-(2-((2,3-difluoro-4-(4-(2-hydroxyethyl)piperazin-1-yl)phenyl)amino)quinazolin-8-yl)phenyl)acrylamide]			< 100	< 100	< 50	100 to 500		< 100	< 100	> 500	IC50 (BTK): < 100 nM; T/C (relative tumor growth rate) (H1975 tumor xenografts; Table 7 study, 60 mg/kg, Oral): 28.6%; Tumor Volume Post-treatment (H1975 tumor xenografts; Table 7 study, 60 mg/kg, Oral): 462 mm3; Tumor Volume Pre-treatment (H1975 tumor xenografts; Table 7 study, 60 mg/kg, Oral): 229 mm3
Fc1ccccc1-c1cccc2cnc(Nc3ccc(N4CCNCC4)cc3)nc12 [Example C031, 8-(2-fluorophenyl)-N-(4-(piperazin-1-yl)phenyl)quinazolin-2-amine]	> 50	> 50	> 500	> 500							inhibition at 1 µM (EGFR (ErbB1); read-out: % inhibition against EGFR (Compound at 1 μM)): > 50%
C=CC(=O)Nc1cccc(-c2cccc3cnc(Nc4ccc(OCCOC)cc4)nc23)c1 [Example C107, N-(3-(2-((4-(2-methoxyethoxy)phenyl)amino)quinazolin-8-yl)phenyl)acrylamide]				< 100		< 100		> 500	< 100	100 to 500	IC50 (BTK): < 100 nM; T/C (relative tumor growth rate) (H1975 tumor xenografts; [1]): 63.6%; Tumor Volume Post-treatment (H1975 tumor xenografts; [1]): 1341.7 mm^3; Tumor Volume Pre-treatment (H1975 tumor xenografts; [1]): 150.6 mm^3
C=CC(=O)Nc1cccc(-c2cccc3cnc(Nc4ccc(N5CCN(CCO)CC5)cc4F)nc23)c1 [Example C147, N-(3-(2-((2-fluoro-4-(4-(2-hydroxyethyl)piperazin-1-yl)phenyl)amino)quinazolin-8-yl)phenyl)acrylamide]			< 100	< 100	< 50	100 to 500		< 100	< 100	> 500	IC50 (BTK): < 100 nM; T/C (relative tumor growth rate) (H1975 tumor xenografts; Table 7 study, 60 mg/kg, Oral): 55.7%; Tumor Volume Post-treatment (H1975 tumor xenografts; Table 7 study, 60 mg/kg, Oral): 898 mm3; Tumor Volume Pre-treatment (H1975 tumor xenografts; Table 7 study, 60 mg/kg, Oral): 240 mm3

More lines, main results first:

inhibition at 1 µM (EGFR (ErbB1) T790M L858R) [%]	inhibition at 0.041 µM (FGFR1) [%]	IC50 (HCC827 cells) [nM]	IC50 (H1975 cells) [nM]	inhibition at 0.041 µM (EGFR (ErbB1)) [%]	IC50 (A431 cells) [nM]	inhibition at 0.0137 µM (EGFR (ErbB1) T790M L858R) [%]	Structure (SMILES)	IC50 (EGFR (ErbB1)) [nM]	IC50 (EGFR (ErbB1) T790M L858R) [nM]	IC50 (H3255 cells) [nM]	other results
	< 50		100 to 500	< 50	> 500	> 50	C=CC(=O)Nc1cccc(-c2cccc3cnc(Nc4ccc(N5CCN(C(C)=O)CC5)cc4)nc23)c1Cl [Example C051, N-(3-(2-((4-(4-acetylpiperazin-1-yl)phenyl)amino)quinazolin-8-yl)-2-chlorophenyl)acrylamide]				
		< 100	100 to 500				C=CC(=O)Nc1cncc(-c2cccc3cnc(Nc4ccc(N5CCN(C(C)=O)CC5)cc4)nc23)c1 [Example C039, N-(5-(2-((4-(4-acetylpiperazin-1-yl)phenyl)amino)quinazolin-8-yl)pyridin-3-yl)acrylamide]				IC50 (H1299 cells): > 500 nM
> 50	> 50	> 500	> 500				CCC(=O)Nc1cccc(-c2cccc3cnc(Nc4ccc(N5CCN(C)CC5)cc4)nc23)c1 [Example C020, N-(3-(2-((4-(4-methylpiperazin-1-yl)phenyl)amino)quinazolin-8-yl)phenyl)propionamide]				
		< 100	< 100		100 to 500		C=CC(=O)Nc1cccc(-c2cccc3cnc(Nc4ccc(N5CCN(C)CC5)c(F)c4F)nc23)c1 [Example C156, N-(3-(2-((2,3-difluoro-4-(4-methylpiperazin-1-yl)phenyl)amino)quinazolin-8-yl)phenyl)acrylamide]	< 100	< 100	> 500	T/C (relative tumor growth rate) (H1975 tumor xenografts; Table 7 study, 60 mg/kg, Oral): 36.8%; Tumor Volume Post-treatment (H1975 tumor xenografts; Table 7 study, 60 mg/kg, Oral): 594 mm3; Tumor Volume Pre-treatment (H1975 tumor xenografts; Table 7 study, 60 mg/kg, Oral): 232 mm3
			< 100	> 50	> 500	> 50	C=CC(=O)Nc1cccc(-c2cccc3cnc(Nc4cnc(N5CCN(C)CC5)nc4)nc23)c1 [Example C046, N-(3-(2-((2-(4-methylpiperazin-1-yl)pyrimidin-5-yl)amino)quinazolin-8-yl)phenyl)acrylamide]				IC50 (H1299 cells): > 500 nM
	> 50		< 100	> 50	100 to 500	> 50	C=CC(=O)Nc1cccc(-c2cccc3cnc(Nc4ccc(N5CCN(C)CC5)c(OC)c4)nc23)c1 [Example C075, N-(3-(2-((3-methoxy-4-(4-methylpiperazin-1-yl)phenyl)amino)quinazolin-8-yl)phenyl)acrylamide]		< 100		
			< 100	< 50	< 100	> 50	C=CC(=O)Nc1cccc(-c2cccc3cnc(Nc4ccc(NC5CN(CCF)C5)cc4)nc23)c1 [Example C103, N-(3-(2-((4-((1-(2-fluoroethyl)azetidin-3-yl)amino)phenyl)amino)quinazolin-8-yl)phenyl)acrylamide]		< 100	100 to 500	T/C (relative tumor growth rate) (H1975 tumor xenografts; [1]): 35.8%; Tumor Volume Post-treatment (H1975 tumor xenografts; [1]): 748.7 mm^3; Tumor Volume Pre-treatment (H1975 tumor xenografts; [1]): 150.9 mm^3
> 50	> 50	> 500	> 500				Clc1cccc(-c2cccc3cnc(Nc4ccc(N5CCNCC5)cc4)nc23)c1 [Example C025, 8-(3-chlorophenyl)-N-(4-(piperazin-1-yl)phenyl)quinazolin-2-amine]				
